Measured values: patent US12568967B2, “Compositions comprising pyridine carboxylate herbicides with synthetic auxin herbicides or auxin transport inhibitors” (priority 2018, dated 2026)

Assays:
[1] = tested on: Chenopodium album L. (common lambsquarters, CHEAL); experiment: Greenhouse postemergence trial CHEAL; format: in vivo;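 also: greenhouse plants sprayed at second to third true leaf stage, injury rated by eye after 20-22 d versus solvent-blank sprayed controls, 0 = no injury, 100 = complete kill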
[2] = tested on: Triticum aestivum (spring wheat, TRZAS); format: in vivo; settings: TRZAS
[3] = tested on: Viola tricolor (wild pansy, VIOTR); experiment: Greenhouse postemergence trial VIOTR;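 also: greenhouse plants sprayed at second to third true leaf stage, injury rated visually after 20-22 d against solvent-blank sprayed controls, 0 meaning no injury and 100 complete kill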
Protocol: (§1) Seeds of the desired test plant species were planted in a 90:10% v/v (volume/volume) mixture of PRO-MIX® BX (Premier Tech Horticulture, Quakertown, PA, USA) and PROFILE® GREENS GRADE™ (Profile Products LLC, Buffalo Grove, IL, USA) planting mixture, which typically has a pH of 5.2 to 6.2 and an organic matter content of at least 50 percent, in plastic pots with a surface area of 103.2 square centimeters (cm^2). […] The plants were grown for 7-36 days (d) in a greenhouse with an approximate 14-hour (h) photo-period which was maintained at about 23° C. during the day and 22° C. during the night. Nutrients and water were added on a regular basis and supplemental lighting was provided with overhead metal halide 1000-Watt lamps as necessary. The plants were employed for testing when they reached the second or third true leaf stage.
(§2) Emulsifiable concentrates of each of each pyridine carboxylate herbicide (Compound A or Compound B) were prepared at 100 grams acid equivalent per liter (g ae/L). The emulsifiable concentrates also included a safener, cloquintocet-mexyl, at 120 grams active ingredient per liter (g ai/L), unless otherwise noted below. An aliquot of each emulsifiable concentrate was placed in a 25 mL glass vial and diluted with an aqueous mixture of 1.25% (v/v) ACTIROB® B esterified rapeseed oil (Bayer Crop Science, Research Triangle Park, NC, USA) or MSO® Concentrate with LECI-TECH® methylated soybean oil (Loveland Products, Loveland, CO, USA) to obtain concentrated stock solutions at the highest application rate for each herbicide, based upon a 12 milliliter (mL) application volume at a rate of 187 liters per hectare (L/ha). The concentrated stock solutions were further diluted with an aqueous mixture of 1.25% v/v ACTIROB® B or MSO® Concentrate with LECI-TECH® to obtain stock solutions at reduced application rates for each herbicide. Spray solutions of the herbicide combinations (Compound A or Compound B plus synthetic auxin herbicide or auxin transport inhibitor) were prepared by adding weighed amounts or aliquots of the synthetic auxin herbicide or auxin transport inhibitor to the stock solutions of Compound A or Compound B to form 12-mL spray solutions in two-way combinations.
(§3) The spray solutions were applied to the plant material with an overhead Mandel track sprayer equipped with 8002E nozzles calibrated to deliver 187 L/ha over an application area of 0.503 square meters (m^2) at a spray height of 18 inches (43 centimeters (cm)) above the average plant canopy. Control plants were sprayed in the same manner with the solvent blank. All pyridine carboxylate herbicide (component a) application rates are given as “g ae/ha” and all synthetic auxin herbicide or auxin transport inhibitor (component b) application rates are given as “g ai/ha.”
(§4) The treated plants and control plants were placed in a greenhouse as described above and watered by sub-irrigation to prevent wash-off of the test compounds. After 20-22 d, the condition of the test plants as compared with that of the control plants was determined visually and scored on a scale of 0 to 100 percent where 0 corresponds to no injury and 100 corresponds to complete kill.

[4] = tested on: Abutilon theophrasti (velvetleaf, ABUTH); experiment: Greenhouse postemergence trial ABUTH; format: in vivo; settings: MCPA EHE 280 g/ha (Table 41)
[5] = tested on: Polygonum convolvulus (wild buckwheat, POLCO); experiment: Greenhouse postemergence trial POLCO; format: in vivo
[6] = tested on: Cirsium arvense (Canadian thistle, CIRAR); experiment: Greenhouse postemergence trial CIRAR; format: in vivo
[7] = tested on: Amaranthus retroflexus (pigweed, AMARE); experiment: Greenhouse postemergence trial AMARE; format: in vivo;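 also: Greenhouse-grown plants sprayed at second to third true leaf stage, injury rated by eye after 20-22 d versus solvent-blank sprayed controls, 0 = no injury, 100 = complete kill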
[8] = tested on: Ipomoea hederacea (ivyleaf morningglory, IPOHE); experiment: Greenhouse postemergence trial IPOHE; format: in vivo; settings: MCPA EHE 280 g/ha (Table 41)
[9] = tested on: Stellaria media (chickweed, STEME); experiment: Greenhouse postemergence trial STEME; format: in vivo
[10] = tested on: Brassica napus (winter rape, BRSNW); experiment: Greenhouse postemergence trial BRSNW; format: in vivo
Protocol: as §1, §2, §3, §4

[11] = tested on: Matricaria chamomilla (wild chamomile, MATCH); experiment: Greenhouse postemergence trial MATCH; format: in vivo; settings: MATCH;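 also: greenhouse plants sprayed at second to third true leaf stage, injury rated by eye 20-22 d later versus solvent-blank controls on 0–100 scale, 0 no injury, 100 complete kill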
Protocol: (§5) The plants were grown for 7-36 days (d) in a greenhouse with an approximate 14-hour (h) photo-period which was maintained at about 23° C. during the day and 22° C. during the night. Nutrients and water were added on a regular basis and supplemental lighting was provided with overhead metal halide 1000-Watt lamps as necessary. The plants were employed for testing when they reached the second or third true leaf stage.
(§6) The emulsifiable concentrates also included a safener, cloquintocet-mexyl, at 120 grams active ingredient per liter (g ai/L), unless otherwise noted below.
(§7) Control plants were sprayed in the same manner with the solvent blank. All pyridine carboxylate herbicide (component a) application rates are given as “g ae/ha” and all synthetic auxin herbicide or auxin transport inhibitor (component b) application rates are given as “g ai/ha.”
as §4

[12] = tested on: Helianthus annuus (common sunflower, HELAN); experiment: Greenhouse postemergence trial HELAN; format: in vivo; settings: MCPA EHE 280 g/ha (Table 41)
[13] = tested on: Sinapis arvensis (wild mustard, SINAR); experiment: Greenhouse postemergence trial SINAR; format: in vivo; settings: SINAR
Protocol: as §5, §6, §7, §4

[14] = tested on: Rumex obtusifolius (broad-leaf dock, RUMOB); experiment: Greenhouse postemergence trial RUMOB; format: in vivo
Protocol: as §1, §2, §3, §4

[15] = tested on: Hordeum vulgare (spring barley, HORVS); format: in vivo; settings: HORVS
[16] = tested on: Kochia scoparia (kochia, KCHSC); experiment: Greenhouse postemergence trial KCHSC; format: in vivo
Protocol: as §1, §2, §3, §4

[17] = tested on: Glycine max (volunteer soybean, GLXMA); experiment: Greenhouse postemergence trial GLXMA; format: in vivo; settings: MCPA EHE 280 g/ha (Table 41)
[18] = tested on: Capsella bursa-pastoris (shepherd's purse, CAPBP); experiment: Greenhouse postemergence trial CAPBP; format: in vivo; settings: Capsella bursa-pastoris, post-emergence, read-out: % visual injury Obs
[19] = tested on: Veronica persica (bird's-eye speedwell, VERPE); experiment: Greenhouse postemergence trial VERPE; format: in vivo; settings: Veronica persica, post-emergence, read-out: % visual injury Obs
[20] = tested on: Triticum aestivum (winter wheat, TRZAW); experiment: Greenhouse postemergence crop phytotoxicity TRZAW; format: in vivo; settings: TRZAW; Florpyrauxifen-benzyl 20 g/ha
[21] = tested on: Papaver rhoeas (corn poppy), herbicide-resistant (PAPRH-R); experiment: Greenhouse postemergence trial PAPRH-R; format: in vivo; settings: Papaver rhoeas, post-emergence, read-out: % visual injury Obs
[22] = tested on: Papaver rhoeas (corn poppy, PAPRH); experiment: Greenhouse postemergence trial PAPRH; format: in vivo; settings: Papaver rhoeas, post-emergence, read-out: % visual injury Obs
Protocol: as §1, §2, §3, §4

[23] = tested on: Viola arvensis (field violet, VIOAR); experiment: Greenhouse postemergence trial VIOAR; format: in vivo; settings: Viola arvensis, post-emergence, read-out: % visual injury Obs
[24] = tested on: Salsola kali (Russian thistle, SASKR); experiment: Greenhouse postemergence trial SASKR; format: in vivo; settings: Salsola kali, post-emergence; SASKR; Florpyrauxifen-benzyl 20 g/ha; read-out: % visual injury Obs;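 also: greenhouse plants sprayed at second or third true leaf stage, injury rated by eye after 20-22 d against solvent-blank controls, 0 meaning no injury, 100 complete kill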
[25] = tested on: Cyanus segetum (cornflower, CENCY); experiment: Greenhouse postemergence trial CENCY; format: in vivo; settings: Centaurea cyanus, post-emergence, read-out: % visual injury Obs
[26] = tested on: Veronica hederifolia (ivyleaf speedwell, VERHE); experiment: Greenhouse postemergence trial VERHE; format: in vivo; settings: Veronica hederifolia, post-emergence, read-out: % visual injury Obs
[27] = tested on: Anthemis arvensis (field chamomile, ANTAR); experiment: Greenhouse postemergence trial ANTAR; format: in vivo; settings: Anthemis arvensis, post-emergence, read-out: % visual injury Obs
[28] = tested on: Matricaria inodora (false chamomile, MATIN); experiment: Greenhouse postemergence trial MATIN; format: in vivo; settings: Tripleurospermum inodorum, post-emergence, read-out: % visual injury Obs
Protocol: as §1, §2, §3, §4

[29] = tested on: Brassica napus (spring rape, BRSNN); experiment: Greenhouse postemergence trial BRSNN; format: in vivo; settings: c2-3 Compound A 7.5/10; c4 Florpyrauxifen-benzyl 10; c5-6 A 7.5/10 + Florpyrauxifen-benzyl 10 g/ha
Protocol: as §5, §6, §7, §4

[30] = tested on: Matricaria discoidea (pineapple weed, MATMT); experiment: Greenhouse postemergence trial MATMT; format: in vivo; settings: Matricaria discoidea, post-emergence, read-out: % visual injury Obs
[31] = tested on: Lamium purpureum (purple deadnettle, LAMPU); experiment: Greenhouse postemergence trial LAMPU; settings: Lamium purpureum, post-emergence, read-out: % visual injury Obs
Protocol: as §5, §6, §7, §4

[32] = tested on: Hordeum vulgare (winter barley, HORVW); experiment: Greenhouse postemergence crop phytotoxicity HORVW; format: in vivo; settings: HORVW; Florpyrauxifen-benzyl 20 g/ha
Protocol: as §1, §2, §3, §4

SMILES: CCCCC(CC)COC(=O)COc1ccc(Cl)cc1C (stereo not drawn) [MCPA EHE]
- % visual injury (Obs) ([1]; CHEAL, alone 280 g/ha): 70%
- CHEAL % visual injury Obs ([1]; MCPA EHE 280 g/ha (Table 41)): 73%
- % visual injury (Obs) ([2]; alone 280 g/ha): 0%
- VIOTR % visual injury Obs ([3]; MCPA EHE 280 g/ha (Table 41)): 0%
- ABUTH % visual injury Obs [4]: 5%
- POLCO % visual injury Obs ([5]; MCPA EHE 280 g/ha (Table 41)): 0%
- % visual injury (Obs) ([5]; POLCO, alone 280 g/ha): 10%
- % visual injury (Obs) ([6]; CIRAR, alone 280 g/ha): 20%
- CIRAR % visual injury Obs ([6]; MCPA EHE 280 g/ha (Table 41)): 23%
- % visual injury (Obs) ([7]; AMARE, alone 280 g/ha): 50%
- AMARE % visual injury Obs ([7]; MCPA EHE 280 g/ha (Table 41)): 30%
- IPOHE % visual injury Obs [8]: 78%
- STEME % visual injury Obs ([9]; MCPA EHE 280 g/ha (Table 41)): 0%
- % visual injury (Obs) ([10]; BRSNW, alone 280 g/ha): 60%
- % visual injury (Obs) ([11]; alone 280 g/ha): 20%
- HELAN % visual injury Obs [12]: 90%
- % visual injury (Obs) ([13]; alone 280 g/ha): 80%
- RUMOB % visual injury Obs ([14]; MCPA EHE 280 g/ha (Table 41)): 25%
- % visual injury (Obs) ([15]; alone 280 g/ha): 0%
- % visual injury (Obs) ([16]; KCHSC, alone 280 g/ha): 10%
- KCHSC % visual injury Obs ([16]; MCPA EHE 280 g/ha (Table 41)): 0%
- GLXMA % visual injury Obs [17]: 30%

SMILES: COc1c(Cl)ccc(-c2nc(C(=O)OCc3ccccc3)c(Cl)c(N)c2F)c1F [Florpyrauxifen-benzyl, florpyrauxifen-benzyl, reference compound]
- % visual injury Obs ([2]; Florpyrauxifen-benzyl 20 g/ha): 0%
- pest or weed control at 20 g/ha ([3]; Viola tricolor, post-emergence, read-out: % visual injury Obs): 70%
- pest or weed control at 20 g/ha [18]: 80%
- pest or weed control at 20 g/ha [19]: 10%
- % visual injury Obs [20]: 0%
- pest or weed control at 20 g/ha [21]: 60%
- pest or weed control at 20 g/ha ([5]; Fallopia convolvulus, post-emergence, read-out: % visual injury Obs): 85%
- pest or weed control at 20 g/ha ([6]; Cirsium arvense, post-emergence, CIRAR, Florpyrauxifen-benzyl 20 g/ha, read-out: % visual injury Obs): 70%
- pest or weed control at 20 g/ha [22]: 70%
- pest or weed control at 20 g/ha [23]: 10%
- pest or weed control at 20 g/ha [24]: 70%
- pest or weed control at 20 g/ha [25]: 100%
- pest or weed control at 20 g/ha [26]: 20%
- pest or weed control at 20 g/ha [27]: 100%
- pest or weed control at 20 g/ha ([9]; Stellaria media, post-emergence, read-out: % visual injury Obs): 100%
- plant injury at 20 g/ha ([10]; Brassica napus, post-emergence, read-out: % visual injury Obs): 40%
- pest or weed control at 20 g/ha ([11]; Matricaria chamomilla, post-emergence, Florpyrauxifen-benzyl 20 g/ha, read-out: % visual injury Obs): 35%
- pest or weed control at 20 g/ha [28]: 50%
- pest or weed control at 20 g/ha ([13]; Mutarda arvensis, post-emergence, Florpyrauxifen-benzyl 20 g/ha, read-out: % visual injury Obs): 90%
- % visual injury, Obs ([14]; c2-3 Compound A 7.5/10, c4 Florpyrauxifen-benzyl 10, c5-6 A 7.5/10 + Florpyrauxifen-benzyl 10 g/ha): 33%
- % visual injury, Obs [29]: 25%
- pest or weed control at 20 g/ha [30]: 50%
- % visual injury Obs ([15]; Florpyrauxifen-benzyl 20 g/ha): 0%
- pest or weed control at 20 g/ha ([16]; Bassia scoparia, post-emergence, KCHSC, Florpyrauxifen-benzyl 20 g/ha, read-out: % visual injury Obs): 65%
- pest or weed control at 20 g/ha [31]: 97%
- % visual injury Obs [32]: 0%
